Measured values: patent US20250325676A1, “CAMPTOTHECIN PRODRUG AND PHARMACEUTICAL COMPOSITION THEREOF” (TIANJIN HEMAY ONCOLOGY PHARMACEUTICAL CO., LTD, priority 2022, published 2025)
Read-outs that look alike come from different tables or passages of the source.

Tests used:
NCI-N87 = test: In vitro inhibition of human tumor cells, NCI-N87, MTT method; format: cell-based
[1] = system: human colon cancer HCT116; conditions: 30 mg/kg i.v. qw × 2; HCT116 large tumor after irinotecan
Description: When the tumor volume was more than 600 mm^3 and stable growth was maintained, the experimental animals were randomly divided by the remainder method and administered according to the size of the tumor volume. […] The subcutaneous tumors were stripped and weighed.
T was the subject and C is the model control.
Tumor volume growth was observed on a regular basis after completion of dosing.

MDA-MB-468 = test: In vitro inhibition of human tumor cells, MDA-MB-468, SRB method
Experimental: 1.1.2 Cell culture method: Cells were cultured in complete medium, 37° C., 5% CO2, saturated humidity to log growth phase (adherent cells generally attended to complete fusion), and cells were collected for subsequent experiments (adherent cells were first digested with trypsin/ethylene diamine tetraacetic acid (EDTA) to remove adherent).
1.1.3 96-well cell culture plates (hereinafter referred to as 96-well plates) were inoculated with a certain number of cells (see Table 1 for details). The cells were allowed to adhere overnight. […] Finally, the total amount of cell protein in the assay wells was determined by the SRB method, or the cell viability was determined by the MTT method:
The culture medium was aspirated from the wells and the cells were fixed for 1 hour or more by adding 10% trichloroacetic acid. Trichloroacetic acid was removed. The resultant was washed with H2O and stained with 0.4% SRB for 15 to 30 minutes. Excess SRB was removed. The resultant was washed with 1% acetic acid. The protein-bound SRB was dissolved by adding 10 mM of 100 μl Tris (trishydroxymethylaminomethane). Tests were carried out at the wavelength of 570 nm.
1.1.4 dilution and addition of β-glucuronidase: 1 to 2 mg of β-glucuronidase was weighed and dissolved in PBS to give a 2 mg/ml of stock solution. […] 80 μl of enzyme working solution was added to the enzyme-containing assay wells. The amount of β-glucuronidase was 1 μg/wells. No enzyme-containing assay wells were added to the 80 μl of complete medium.
The assay wells were charged with 20 μl of 10× compound working solution. The final volume was 200 μl per well. The DMSO concentration was 0.1%.
1.1.6 Compound inhibition activity calculation: The test included a compound test group, a compound-free positive solvent control group (PC) and a compound-free negative solvent control group (NC). […] The average inhibition rate and the standard deviation (SD) were obtained from the repeated test wells. The average inhibition rate was plotted on the basis of the compound concentration as an abscissa and distributed in the form of logarithms. The curve was fitted to the Logistic 4 parameter equation. […] The test was generally repeated to obtain 3 valid results.

HCT116 = test: In vitro inhibition of human tumor cells, HCT116, MTT method; format: cell-based
Experimental: (§1) The cells were allowed to adhere overnight.
(§2) Adherent cells: Culture medium was aspirated and 100 μl/wells of basal culture (generally refers to medium without fetal bovine serum (FBS) and other additives) containing 0.5 mg/ml MTT were added. The cells were cultured for 3 hours. MTT-containing basal medium was aspirated and 100 μl/wells of DMSO were added to dissolve formazan.
(§3) Unstably adherent cells: Unstably adherent cells were directly added to the MTT solution to achieve the concentration of 0.5 mg/ml and cultured for 3 hours. The ternary solution in an equal volume to the system was added to the system to dissolve the formazan.
(§4) The DMSO concentration was 0.1%.

SW620 = test: In vitro inhibition of human tumor cells, SW620, SRB method; format: cell-based
Description: as §1
(§5) Trichloroacetic acid was removed. […] Excess SRB was removed.
as §4

LoVo = test: In vitro inhibition of human tumor cells, LoVo, SRB method; format: cell-based
Description: as §1, §5, §4

BxPC-3 = test: In vitro inhibition of human tumor cells, BxPC-3, MTT method; format: cell-based
Experimental: as §1, §2, §3, §4

NCI-H460 = test: In vitro inhibition of human tumor cells, NCI-H460, MTT method; format: cell-based
Experimental: as §1, §2, §3, §4

[2] = system: human small cell lung cancer NCI-H446; conditions: 20 mg/kg i.v. qw × 2; NCI-H446 model
Experimental: An allogeneic transplantation model of human small cell lung cancer NCI-H446 was established in nude mice subcutaneously using a tumor block inoculation method. When the tumor volume of the allogeneic transplantation was about 100 to 300 mm^3 and remained stable, the experimental animals were randomly divided into groups according to the size of the tumor volume (day 0, i.e., d0) using a remainder method. The tumor volume was measured 2 to 3 times a week. At the end of the dosage period, the experimental animals were sacrificed. The subcutaneous tumors were peeled and weighed. The anti-tumor activity of the drug against the model was evaluated based on tumor volume and tumor weight-related data.
(§6) The calculation formula of the tumor volume was: Volume=0.5×long diameter×short diameter×short diameter.
(§7) V0 was the resulting tumor volume measured at the time of dosing in groups (i.e., d0) and Vt was the tumor volume at each measurement.
(§8) T was the subject and C was the model control.
(§9) TRTV was the average RTV of the subject, and CRTV was the average RTV of the model control group.
(§10) Wn: average body weight of each group of experimental animals on day n, and W0: average body weight of each group of experimental animals on day 0.

[3] = system: human pancreatic cancer BxPC-3; test: Growth of human pancreatic cancer BxPC-3 in allogeneic transplantation model; format: in vivo, nude mice; conditions: 25 mg/kg i.v. qw × 2; BxPC-3 model
Experimental: (§11) When the tumor volume of the allogeneic transplantation was about 100 to 300 mm^3 and remained stable, the experimental animals were randomly divided into groups according to the size of the tumor volume (day 0) by using a remainder method. The tumor volume was measured 2 to 3 times a week. At the end of the dosage period, the experimental animals were sacrificed. The subcutaneous tumors were peeled and weighed. The anti-tumor activity of the drug against the model was evaluated based on tumor volume and tumor weight-related data.
as §6, §7, §8, §9, §10
(§12) In the large tumor efficacy test after the second grouping of the G5 group, since the number of samples in each group of G6.1 and G6.4 was less than three, the relevant data of the large tumor efficacy test were statistically analyzed among groups using the T-Test method.

[4] = system: human pancreatic cancer BxPC-3; conditions: 30 mg/kg i.v. qw × 2; BxPC-3 large tumors after irinotecan
Experimental: as §11, §6, §7, §8, §9, §10, §12

[5] = No βGU (direct effects of compound on cells)

Row | Substance | IC50 (NCI-N87; Adding βGU) [nM] | IC50 (NCI-N87; No βGU) [nM] | IC50 (MDA-MB-468; Adding βGU) [nM] | IC50 (MDA-MB-468; No βGU) [nM] | IC50 (HCT116; Adding βGU (β-glucuronidase)) [nM] | IC50 (HCT116; [5]) [nM] | IC50 (SW620; Adding βGU) [nM] | IC50 (SW620; No βGU) [nM] | IC50 (LoVo; Adding βGU) [nM] | IC50 (LoVo; No βGU) [nM] | IC50 (BxPC-3; Adding βGU) [nM] | IC50 (BxPC-3; No βGU) [nM] | IC50 (NCI-H460; Adding βGU) [nM] | IC50 (NCI-H460; No βGU) [nM] | inhibition rate at 2 μM (NCI-N87; No βGU) | further results
1 | (2S,3S,4S,5R,6S)-6-(3-((1-(2-(2-((4′-(E)-(8-amino-1-hydroxy-5,7-disulfonicnaphthalen-2-yl)diazenyl)-3,3′-dimethyl-[1,1′-biphenyl]-4-yl)amino)-3-oxopropoxy)ethyl)-1H-1,2,3-triazol-4-yl)methoxy)-4-((((S)-4,11-diethyl-4-hydroxy-3,14-dioxy-3,4,12,14-tetrahydro-1H-pyrano[3′,4′:6,7]indolazino[1,2-b]quinolin-9-yl)oxy)methyl)phenoxy)-3,4,5-trihydroxytetrahydro-2H-pyran-2-carboxylate trisodium [Example 101] | 51 | 1240 | 11 | 372 | – | – | – | – | – | – | – | – | – | – | – | Relative volume RTV (X ± S.D.) [1]: 0.90 ± 0.20; T/C (%) [1]: 24.2%; Tumor inhibition rate (%) [1]: 81.6%; Tumor weight (g, X ± S.D.) [1]: 0.501 ± 0.081 g
2 | (2S,3S,4S,5R,6S)-6-(3-((1-(3-(2-((4′-(E)-(8-amino-1-hydroxy-5,7-disulfonicnaphthalen-2-yl)diazenyl)-3,3′-dimethyl-[1,1′-biphenyl]-4-yl)amino)-2-oxoethoxy)propyl)-1H-1,2,3-triazol-4-yl)methoxy)-4-((((S)-4,11-diethyl-4-hydroxy-3,14-dioxy-3,4,12,14-tetrahydro-1H-pyrano[3′,4′:6,7]indolazino[1,7]quinolin-9-yl)oxy)methyl)phenoxy)-3,4, 5-trihydroxytetrahydro-2H-pyran-2-carboxylate trisodium [Example 96] | 30 | 964 | 7.5 | 213 | – | – | – | – | – | – | – | – | – | – | – | Relative volume RTV (X ± S.D.) [1]: 0.78 ± 0.03; T/C (%) [1]: 21.0%; Tumor inhibition rate (%) [1]: 84.4%; Tumor weight (g, X ± S.D.) [1]: 0.425 ± 0.091 g
3 | (2S,3S,4S,5R,6S)-6-(3-((1-(6-((4′-((E)-(8-amino-1-hydroxy-5,7-disulfonicnaphthalen-2-yl)diazenyl)-3,3′-dimethoxy-[1,1′-biphenyl]-4-yl)amino)-6-oxohexyl)-1H-1,2,3-triazol-4-yl)methoxy)-4-(((S)-4-ethyl-4-hydroxy-3,14-dioxy-3,4,12,14-tetrahydro-1H-pyrano[3′,4′:6,7]indolazino[1,2-b]quinolin-9-yl)oxy)methyl)phenoxy)-3,4,5-trihydroxytetrahydro-2H-pyran-2-carboxylate trisodium [Example 31] | 62 | 1770 | 11 | 329 | 9.3 | 339 | 10 | 220 | 32 | 699 | 21 | 518 | 19 | 540 | – | –
4 | (2S,3S,4S,5R,6S)-6-(3-((1-(6-((4′-((E)-(8-amino-1-hydroxy-5,7-disulfonicnaphthalen-2-yl)diazenyl)-3,3′-dimethyl-[1,1′-biphenyl]-4-yl)amino)-6-oxohexyl)-1H-1,2,3-triazol-4-yl)methoxy)-4-((((S)-4,11-diethyl-4-hydroxy-3,14-dioxy-3,4,12,14-tetrahydro-1H-pyrano[3′,4′:6,7]indolazino[1,2-b]quinolin-9-yl)oxy)methyl)2-methylphenoxy)-3,4,5-trihydroxytetrahydro-2H-pyran-2-carboxylate trisodium [Example 14] | 26 | 1480 | 4.4 | 106 | 3.3 | 175 | 6.3 | 151 | 10 | 204 | 16 | 406 | 8.7 | 533 | – | Relative volume RTV (X ± S.D.) [2]: 0.69 ± 0.45; T/C (%) [2]: 10.2%; Tumor inhibition rate (%) [2]: 91.3%; Tumor weight (g, X ± S.D.) [2]: 0.085 ± 0.075 g
5 | (2S,3S,4S,5R,6S)-6-(3-((1-(6-((4′-((E)-(8-amino-1-hydroxy-5,7-disulfonicnaphthalen-2-yl)diazenyl)-3,3′-dimethyl-[1,1′-biphenyl]-4-yl)amino)-6-oxohexyl)-1H-1,2,3-triazol-4-yl)methoxy)-4-(((S)-4-ethyl-4-hydroxy-3,14-dioxy-3,4,12,14-tetrahydro-1H-pyrano[3′,4′:6,7]indolazino[1,2-b]quinolin-9-yl)oxy)methyl)phenoxy)-3,4,5-trihydroxytetrahydro-2H-pyran-2-carboxylate trisodium [Example 24] | 61 | – | 11 | 171 | 14 | 339 | 6.5 | 915 | 18 | 764 | 19 | 1270 | 39 | 1720 | 2 μM about 34.4% | Relative volume RTV (X ± S.D.) [3]: 0.46 ± 0.12; T/C (%) [3]: 9.6%; Tumor inhibition rate (%) [3]: 92.0%; Tumor weight (g, X ± S.D.) [3]: 0.134 ± 0.080 g; Relative volume RTV (X ± S.D.) [4]: 1.04 ± 0.07; T/C (%) [4]: 25.5%; Tumor inhibition rate (%) [4]: 75.3%; Tumor weight (g, X ± S.D.) [4]: 0.742 ± 0.267 g
6 | (2S,3S,4S,5R,6S)-6-(3-((1-(6-((4′-((E)-(8-amino-1-hydroxy-5,7-disulfonicnaphthalen-2-yl)diazenyl)-[1,1′-biphenyl]-4-yl)amino)-6-oxohexyl)-1H-1,2,3-triazol-4-yl)methoxy)-4-((((S)-4,11-diethyl-4-hydroxy-3,14-dioxo-3,4,12,14-tetrahydro-1H-pyrano[3′,4′:6,7]indolazino[1,7]quinolin-9-yl)oxy)methyl)-2-methylphenoxy)-3,4,5-trihydroxytetrahydro-2H-pyran-2-carboxylate trisodium [Example 18] | 29 | – | 5.5 | 110 | 6.5 | 186 | 6.8 | 204 | 19 | 812 | 17 | 1620 | 7.6 | 533 | 2 μM about 49.3% | –
7 | (2S,3S,4S,5R,6S)-6-(3-((1-(6-((4′-((E)-(8-amino-1-hydroxy-5,7-disulfonicnaphthalen-2-yl)diazenyl)-[1,1′-biphenyl]-4-yl)amino)-6-oxohexyl)-1H-1,2,3-triazol-4-yl)methoxy)-4-((((S)-4-ethyl-4-hydroxy-3,14-dioxo-3,4,12,14-tetrahydro-1H-pyrano[3′,4′:6,7]indolazino[1,2-b]quinolin-9-yl)oxy)methyl)phenoxy)-3,4,5-trihydroxytetrahydro-2H-pyran-2-carboxylate trisodium [Example 29] | 64 | – | 14 | 788 | 17 | 1350 | 9.6 | 350 | 55 | 1200 | 38 | 916 | 30 | – | 2 μM about 31.0% | inhibition rate at 2 μM (NCI-H460; No βGU, 2 μM): 2 μM about 43.9%
8 | (2S,3S,4S,5R,6S)-6-(3-((1-(8-((4′-((E)-(8-amino-1-hydroxy-5,7-disulfonicnaphthalen-2-yl)diazenyl)-3,3′-dimethyl-[1,1′-biphenyl]-4-yl)amino)-8-oxooctyl)-1H-1,2,3-triazol-4-yl)methoxy)-4-((((S)-4,11-diethyl-4-hydroxy-3,14-dioxy-3,4,12,14-tetrahydro-1H-pyrano[3′,4′:6,7]indolazino[1,2-b]quinolin-9-yl)oxy)methyl)-2-methylphenoxy)-3,4,5-trihydroxytetrahydro-2H-pyran-2-carboxylate trisodium [Example 48] | 52 | 1200 | 7.3 | 94 | 5.9 | 119 | 10 | 230 | 28 | 372 | 28 | 432 | 6.8 | 419 | – | –
